# Test results as given in ChEMBL document CHEMBL1681742, “Novel second generation analogs of eribulin. Part I: Compounds containing a lipophilic C32 side chain overcome P-glycoprotein susceptibility” (Bioorg Med Chem Lett, 2011).
# Legend:
# [1] = Antiproliferative activity against human MES-SA cells assessed as growth inhibition; format: functional, cell-based
# [2] = Antiproliferative activity against P-gp overexpressing human MES-SA/Dx5-Rx1 cells assessed as growth inhibition; format: functional
# DLD-1 = assay: Antiproliferative activity against human DLD1 cells assessed as growth inhibition; format: functional, cell-based
# HCT-15 = assay: Antiproliferative activity against human HCT15 cells assessed as growth inhibition; format: functional, cell-based
# [3] = Cytotoxicity against human IMR90 cells up to 1 uM; format: cell-based; conditions: imr-90
# [4] = Fold resistance, ratio of IC50 for antiproliferative activity for P-gp overexpressing human MES-SA/Dx5-Rx1cells to IC50 for antiproliferative activity for human MES-SA cells
SMILES,IC50 [1] [nM],IC50 [2] [nM],IC50 (DLD-1) [nM],IC50 (HCT-15) [nM],Activity [3],Ratio IC50 [4]
C=C1C[C@@H]2CC[C@@]34C[C@H]5O[C@H]6[C@@H](O3)[C@H]3O[C@H](CC[C@@H]3O[C@H]6[C@H]5O4)CC(=O)C[C@@H]3[C@@H](OC)[C@@H](C[C@H](O)CO)O[C@H]3C[C@H]3O[C@@H](CC[C@@H]1O2)C[C@@H](C)C3=C,0.03,6.5,0.54,0.22,Non-toxic,216.5
C=C1C[C@@H]2CC[C@@]34C[C@H]5O[C@H]6[C@@H](O3)[C@H]3O[C@H](CC[C@@H]3O[C@H]6[C@H]5O4)CC(=O)C[C@@H]3[C@@H](OC)[C@@H](CC)O[C@H]3C[C@H]3O[C@@H](CC[C@@H]1O2)C[C@@H](C)C3=C,1.06,1.36,,,Non-toxic,1.81
C#CC[C@H]1O[C@H]2C[C@H]3O[C@@H](CC[C@@H]4O[C@@H](CC[C@@]56C[C@H]7O[C@H]8[C@@H](O5)[C@H]5O[C@H](CC[C@@H]5O[C@H]8[C@H]7O6)CC(=O)C[C@@H]2[C@H]1OC)CC4=C)C[C@@H](C)C3=C,0.73,2.01,1.46,0.83,Non-toxic,2.75
CC[C@]1(O)C[C@@H]2CN(CCc3c([nH]c4ccccc34)[C@@](C(=O)OC)(c3cc4c(cc3OC)N(C)[C@H]3[C@@](O)(C(=O)OC)[C@H](OC(C)=O)[C@]5(CC)C=CCN6CC[C@]43[C@@H]65)C2)C1 [VINBLASTINE],2.28,440,,28.5,Non-toxic,224.18
CC(=O)O[C@H]1C(=O)[C@@]2(C)[C@H]([C@H](OC(=O)c3ccccc3)[C@]3(O)C[C@H](OC(=O)[C@H](O)[C@@H](NC(=O)c4ccccc4)c4ccccc4)C(C)=C1C3(C)C)[C@]1(OC(C)=O)CO[C@@H]1C[C@@H]2O [PACLITAXEL],2.96,> 1000,,,Non-toxic,>338
C=C1C[C@@H]2CC[C@@]34C[C@H]5O[C@H]6[C@@H](O3)[C@H]3O[C@H](CC[C@@H]3O[C@H]6[C@H]5O4)CC(=O)C[C@@H]3[C@@H](OC)[C@@H](C[C@H](O)COC(C)=O)O[C@H]3C[C@H]3O[C@@H](CC[C@@H]1O2)C[C@@H](C)C3=C,0.11,3.47,,,Non-toxic,33
C=C1C[C@@H]2CC[C@@]34C[C@H]5O[C@H]6[C@@H](O3)[C@H]3O[C@H](CC[C@@H]3O[C@H]6[C@H]5O4)CC(=O)C[C@@H]3[C@@H](OC)[C@@H](C[C@@H](CO)OC)O[C@H]3C[C@H]3O[C@@H](CC[C@@H]1O2)C[C@@H](C)C3=C,0.3,11.3,0.75,0.67,Non-toxic,37.73
C=C1C[C@@H]2CC[C@@]34C[C@H]5O[C@H]6[C@@H](O3)[C@H]3O[C@H](CC[C@@H]3O[C@H]6[C@H]5O4)CC(=O)C[C@@H]3[C@@H](OC)[C@@H](C[C@@H](CN=[N+]=[N-])OC)O[C@H]3C[C@H]3O[C@@H](CC[C@@H]1O2)C[C@@H](C)C3=C,0.44,1.86,0.78,0.48,Non-toxic,4.19
C=C1C[C@@H]2CC[C@@]34C[C@H]5O[C@H]6[C@@H](O3)[C@H]3O[C@H](CC[C@@H]3O[C@H]6[C@H]5O4)CC(=O)C[C@@H]3[C@@H](OC)[C@@H](C[C@H](O)COCC)O[C@H]3C[C@H]3O[C@@H](CC[C@@H]1O2)C[C@@H](C)C3=C,0.2,2.24,0.27,0.23,Non-toxic,11.2
C=C1C[C@@H]2CC[C@@]34C[C@H]5O[C@H]6[C@@H](O3)[C@H]3O[C@H](CC[C@@H]3O[C@H]6[C@H]5O4)CC(=O)C[C@@H]3[C@@H](OC)[C@@H](CCCO)O[C@H]3C[C@H]3O[C@@H](CC[C@@H]1O2)C[C@@H](C)C3=C,0.3,5.67,0.47,0.4,Non-toxic,18.88
C=C1C[C@@H]2CC[C@@]34C[C@H]5O[C@H]6[C@@H](O3)[C@H]3O[C@H](CC[C@@H]3O[C@H]6[C@H]5O4)CC(=O)C[C@@H]3[C@@H](OC)[C@@H](CCC#N)O[C@H]3C[C@H]3O[C@@H](CC[C@@H]1O2)C[C@@H](C)C3=C,0.75,2.91,1.43,0.68,Non-toxic,3.88
C=C1C[C@@H]2CC[C@@]34C[C@H]5O[C@H]6[C@@H](O3)[C@H]3O[C@H](CC[C@@H]3O[C@H]6[C@H]5O4)CC(=O)C[C@@H]3[C@@H](OC)[C@@H](C[C@@H](CC#N)OC)O[C@H]3C[C@H]3O[C@@H](CC[C@@H]1O2)C[C@@H](C)C3=C,0.4,3.9,1.05,0.61,Non-toxic,9.86
C=C1C[C@@H]2CC[C@@]34C[C@H]5O[C@H]6[C@@H](O3)[C@H]3O[C@H](CC[C@@H]3O[C@H]6[C@H]5O4)CC(=O)C[C@@H]3[C@@H](OC)[C@@H](CC(=O)OC)O[C@H]3C[C@H]3O[C@@H](CC[C@@H]1O2)C[C@@H](C)C3=C,0.35,1.48,0.83,0.44,Non-toxic,4.23
C=C1C[C@@H]2CC[C@@]34C[C@H]5O[C@H]6[C@@H](O3)[C@H]3O[C@H](CC[C@@H]3O[C@H]6[C@H]5O4)CC(=O)C[C@@H]3[C@@H](OC)[C@@H](CC(=O)OCC)O[C@H]3C[C@H]3O[C@@H](CC[C@@H]1O2)C[C@@H](C)C3=C,0.37,1.17,0.45,0.4,Non-toxic,3.21
C=C1C[C@@H]2CC[C@@]34C[C@H]5O[C@H]6[C@@H](O3)[C@H]3O[C@H](CC[C@@H]3O[C@H]6[C@H]5O4)CC(=O)C[C@@H]3[C@@H](OC)[C@@H](C[C@H]4COCCO4)O[C@H]3C[C@H]3O[C@@H](CC[C@@H]1O2)C[C@@H](C)C3=C,1,23,0.88,1.24,Non-toxic,22.96
C=C1C[C@@H]2CC[C@@]34C[C@H]5O[C@H]6[C@@H](O3)[C@H]3O[C@H](CC[C@@H]3O[C@H]6[C@H]5O4)CC(=O)C[C@@H]3[C@@H](OC)[C@@H](C[C@@H](CN=[N+]=[N-])OCc4ccccc4)O[C@H]3C[C@H]3O[C@@H](CC[C@@H]1O2)C[C@@H](C)C3=C,4.83,36.7,10.6,7.08,Non-toxic,7.6
C=C1C[C@@H]2CC[C@@]34C[C@H]5O[C@H]6[C@@H](O3)[C@H]3O[C@H](CC[C@@H]3O[C@H]6[C@H]5O4)CC(=O)C[C@@H]3[C@@H](OC)[C@@H](CC(=O)COC)O[C@H]3C[C@H]3O[C@@H](CC[C@@H]1O2)C[C@@H](C)C3=C,0.44,2.92,0.67,0.62,Non-toxic,6.7
C=C1C[C@@H]2CC[C@@]34C[C@H]5O[C@H]6[C@@H](O3)[C@H]3O[C@H](CC[C@@H]3O[C@H]6[C@H]5O4)CC(=O)C[C@@H]3[C@@H](OC)[C@@H](C[C@@H](COCC)OCC)O[C@H]3C[C@H]3O[C@@H](CC[C@@H]1O2)C[C@@H](C)C3=C,0.54,2.38,0.8,0.55,Non-toxic,4.4
C=C1C[C@@H]2CC[C@@]34C[C@H]5O[C@H]6[C@@H](O3)[C@H]3O[C@H](CC[C@@H]3O[C@H]6[C@H]5O4)CC(=O)C[C@@H]3[C@@H](OC)[C@@H](CCOC)O[C@H]3C[C@H]3O[C@@H](CC[C@@H]1O2)C[C@@H](C)C3=C,0.19,0.78,0.38,0.24,Non-toxic,4.08
COc1cccc2c1C(=O)c1c(O)c3c(c(O)c1C2=O)C[C@@](O)(C(=O)CO)C[C@@H]3O[C@H]1C[C@H](N)[C@H](O)[C@H](C)O1 [DOXORUBICIN],26.4,2700,,154,Non-toxic,134
